Measurements from patent US20210115000A1, “NILE RED DERIVATIVES FOR IMPROVED RATIOMETRIC IMAGING FOR NERVE SPECIFIC CONTRAST” (Oregon Health & Sciences University, priority 2018, published 2021).

What was measured:
[1] = Spectroscopic analysis: absorbance, emission and quantum yield of Nile Red derivatives; type: physicochemical; details: in DMSO; for QY (quantum yield): standard Rhodamine B
Procedure: Tandem liquid chromatography mass spectroscopy (LCMS) analysis (Agilent 1260 LC system with a 6224 time of flight (TOF) MS, Agilent, Santa Clara, Calif.) was performed using a 2.7 micron C18 column (4.6×50 mm, Agilent). High performance liquid chromatography (HPLC) purification (Agilent 1260 system with a preparative pump) was performed using a 5 micron C18 column (21.2×150 mm, Agilent). For both HPLC and LCMS, the mobile phase consisted of HPLC grade acetonitrile and water, treated with 0.1% formic acid. Spectroscopic analysis was performed on a Spectramax M5 spectrometer (Molecular Devices, Sunnyvale, Calif.) using a quartz cuvette with a 1 cm pathlength. Quantum yield was calculated according to equation (1).
Where Ø is the quantum yield, F is the integrated fluorescence intensity, f is the absorbance at the excitation wavelength and n is the refractive index of the solvent. S refers to the quantum yield standard (Rhodamine B)^25 and X refers to the unknown sample.

[2] = test system: U2OS human osteosarcoma cell line; experiment: Nile Red derivative cell staining and imaging, fixed and live cells; type: cell-based; details: 1 μM; for fluorescence intensity in fixed cells: U2OS fixed with 4% PFA, imaged without washing; for fluorescence intensity in live cells without washing / structures observed in live cells without washing: U2OS live, imaged in staining solution
Procedure: The U2OS human osteosarcoma cell line was cultured in Dulbecco's Modified Eagle Medium (DMEM, Thermo Fisher Scientific, Waltham, Mass.) with 10% fetal bovine serum (FBS, VWR, Radnor, Pa.) and 1% Penicillin/Steptomycin 100× (Thermo Fisher Scientific) at 37° C. in 5% CO2. For live cell imaging studies, Fluorobrite DMEM media (Thermo Fisher Scientific) was used in place of DMEM. For imaging studies, cells were grown in 96-well glass bottom plates (Cellvis, Mountain View, Calif.) for 48 hours, with a final confluence of <80%. Nile Red and its derivatives were prepared at 1-10 mM stock concentration in DMSO and diluted into media or buffer for cell staining and imaging studies.
Cell staining studies were completed on fixed and live U2OS cells using Nile Red and each synthesized Nile Red derivative described as follows. For fixed cell staining, cells were washed once with 1× phosphate buffered saline (PBS), then fixed with 4% paraformaldehyde (PFA) for 20 minutes at room temperature. The PFA was removed and each well was washed three times for 5 mins per wash (3×5 mins) with 1×PBS. The Nile Red fluorophores were diluted into 1×PBS to a final concentration of 1 μM, incubated for 5 minutes with the cells, and images were collected without washing. Live cell staining was completed using two methods. First, cells were washed once with Fluorobrite DMEM. The Nile Red fluorophore solution was prepared in Fluorobrite DMEM by diluting to a final concentration of 1 μM for staining, where cells were stained for 5 minutes. The fluorophore containing media was removed and the cells were fixed for 20 minutes using 4% PFA. Cells were then washed 3×5 mins with Fluorobrite DMEM prior to imaging. Second, cells were washed with Fluorobrite DMEM without FBS once for 5 minutes. Nile Red fluorophore solutions were prepared in Fluorobrite without FBS at 1 μM final concentration for cell staining. The cells were stained with the prepared solution for 5 minutes and imaged in the staining solution. All images were collected at their ideal exposure times to permit visualization of stained intracellular structures.
All ex vivo and cellular fluorescence and white light images were collected using a Zeiss AxioObserver inverted fluorescence microscope (Carl Zeiss, Oberkochen, Germany). All cell images were collected at 40× magnification and all tissue section images were collected at 10× magnification. Fluorescence excitation was completed using a Photofluor II broad band light source (89 North, Burlington, Vt.) filtered with a 545±12.5 nm bandpass excitation filter. Fluorescence images were collected using a 605±35 nm bandpass emission filter and a AxioCam 506 monochromo camera (Zeiss). All Filters were Purchased from Chroma Technologies (Bellows Falls, Vt.).

[3] = test system: sciatic nerve or brachial plexus nerve sites (adipose, nerve, muscle tissue); experiment: In vivo imaging following direct/topical administration on rodent nerve sites; design: species or system male CD-1 mice; details: immediately following direct administration
From the text: In vivo images were acquired using a previously published, custom-built small animal fluorescence imaging system, described briefly here.^27 Fluorescent images were obtained using a Qimaging EXi Blue monochrome camera (Surrey, British Columbia, CA) with a removable Bayer mask for collection of co-registered color and fluorescence images. A Photofluor II broad band light source (89 North) was expanded onto the surgical field through a liquid light guide and used unfiltered for white light illumination. Nile Red and NR5 were excitated using a 545 t 12.5 nm bandpass filter, while fluorescence emission images were collected with a 605±35 nm bandpass filter. Oxazine 4 (Exciton, West Chester, Ohio) was used for nerve and adipose co-staining and ratiometic imaging studies. Oxazine 4 was excited using a 620±30 nm bandpass filter, while fluorescence emission images were collected through a 700±37.5 nm bandpass filter. Approval for the use of animals in the study was obtained from the Institutional Animal Care and Use Committee (IACUC) at Oregon Health and Science University (OHSU). In vivo staining studies were carried out on male CD-1 mice using an optimized direct/topical administration protocol.^2 Staining was performed concurrently on no more than two nerve sites (sciatic nerve or brachial plexus) per mouse. Nile Red and all Nile Red derivatives were formulated in a previously published co-solvent formulation (10% DMSO, 5% Kolliphor, 63.75% serum and 21.25% PBS^14) at a final concentration of 100 μM. Each formulated fluorophore was incubated for 5 minutes on the nerve site (n=4 nerve sites/fluorophore), followed by 9 short flushes with PBS. The nerve site was then incubated with blank co-solvent not containing fluorophore for 5 minutes, followed again by 9 short flushes with PBS.

[4] = test system: nerve, adipose and muscle tissue at nerve sites; experiment: In vivo co-staining with Oxazine 4, ratiometric imaging and ROC curve analysis; design: species or system male CD-1 mice; details: 30 min after staining compared to immediately following staining
From the text: In vivo images were acquired using a previously published, custom-built small animal fluorescence imaging system, described briefly here.^27 Fluorescent images were obtained using a Qimaging EXi Blue monochrome camera (Surrey, British Columbia, CA) with a removable Bayer mask for collection of co-registered color and fluorescence images. A Photofluor II broad band light source (89 North) was expanded onto the surgical field through a liquid light guide and used unfiltered for white light illumination. Nile Red and NR5 were excitated using a 545 t 12.5 nm bandpass filter, while fluorescence emission images were collected with a 605±35 nm bandpass filter. Oxazine 4 (Exciton, West Chester, Ohio) was used for nerve and adipose co-staining and ratiometic imaging studies. Oxazine 4 was excited using a 620±30 nm bandpass filter, while fluorescence emission images were collected through a 700±37.5 nm bandpass filter. Approval for the use of animals in the study was obtained from the Institutional Animal Care and Use Committee (IACUC) at Oregon Health and Science University (OHSU). In vivo staining studies were carried out on male CD-1 mice using an optimized direct/topical administration protocol.^2 Staining was performed concurrently on no more than two nerve sites (sciatic nerve or brachial plexus) per mouse. Nile Red and all Nile Red derivatives were formulated in a previously published co-solvent formulation (10% DMSO, 5% Kolliphor, 63.75% serum and 21.25% PBS^14) at a final concentration of 100 μM. Each formulated fluorophore was incubated for 5 minutes on the nerve site (n=4 nerve sites/fluorophore), followed by 9 short flushes with PBS. The nerve site was then incubated with blank co-solvent not containing fluorophore for 5 minutes, followed again by 9 short flushes with PBS. In vivo co-staining was completed with (1) Nile Red and Oxazine 4 as well as (2) NR5 and Oxazine 4. For these studies, co-solvent formulated Oxazine 4 ([…]) was incubated on the nerve site for 5 minutes followed by 9 short flushes with PBS. The co-solvent formulated Nile Red or NR5 (100 μM) was then incubated on the nerve site for 5 minutes and also followed by 9 short flushes with PBS. Co-registered (1) Nile Red and Oxazine 4 or (2) NR5 and Oxazine 4 images were collected from n=4 nerve sites per groups (1) and (2). Ratiometric images were calculated and quantified using region of interest analysis on the white light images to identify the nerve, adipose and muscle tissue types. Due to the known cross talk of Oxazine 4 into the Nile Red channel,^2 the Oxazine 4 image was subtracted from the Nile Red or NR5 image resulting in an image of only adipose. The ratiometric images were then calculated as the Oxazine 4 image minus the corrected Nile Red or NR5 image divided by the corrected Nile Red or NR5 image. Receiver Operator Characteristic (ROC) curve analysis was performed to assess differences between the ratiometric images, where the area under the curve (AUC) was used as the metric to differentiate between groups (1) and (2) using custom written MatLab code.^28

[5] = U2OS, fixed and washed prior to imaging

CCN(CC)c1ccc2nc3c4ccc(-c5ccc(N)cc5)cc4c(=O)cc-3oc2c1 [NR1]
Max Abs [1]: 555 nm
Max Em [1]: 635 nm
Stokes Shift [1]: 80 nm
QY (quantum yield) [1]: 0.08
fluorescence intensity in fixed cells ([2]; 5 min): brighter in vitro fluorescence than NR12
fluorescence intensity in live cells without washing ([2]; 5 min): brighter than other Nile Red derivatives with higher quantum yields such as NR12 and NR6
structures observed in live cells without washing ([2]; 5 min): Prominent lipid droplet like structures
adipose to muscle ratio [3]: lower than Nile Red, adipose to muscle contrast was similar
adipose to nerve ratio [3]: increased contrast over control autofluorescence with similar adipose to nerve contrast

CCN(CC)c1ccc2nc3c4cc(-c5ccc(N)cc5)ccc4c(=O)cc-3oc2c1 [NR10, 2-(4-aminophenyl)-9-(diethylamino)-5H-benzo[a]phenoxazin-5-one]
Max Abs [1]: 555 nm
Max Em [1]: 635 nm
Stokes Shift [1]: 80 nm
QY (quantum yield) [1]: 0.04
staining pattern in cells stained live, then fixed [2, 5]: more cytoplasmic structures were stained
adipose to muscle ratio [3]: lower than Nile Red, adipose to muscle contrast was similar
adipose to nerve ratio [3]: increased contrast over control autofluorescence with similar adipose to nerve contrast

CCN(CC)c1ccc2nc3c4cc(C#Cc5cccc(N)c5)ccc4c(=O)cc-3oc2c1 [NR7, 2-((3-aminophenyl)ethynyl)-9-(diethylamino)-5H-benzo[a]phenoxazin-5-one]
Max Abs [1]: 565 nm
Max Em [1]: 640 nm
Stokes Shift [1]: 75 nm
QY (quantum yield) [1]: 0.14
staining pattern in cells stained live, then fixed [2, 5]: more cytoplasmic structures were stained

CCN(CC)c1ccc2nc3c4cc(C#Cc5cc(C=O)ccc5OC)ccc4c(=O)cc-3oc2c1 [NR9, 3-((9-(diethylamino)-5-oxo-5H-benzo[a]phenoxazin-2-yl)ethynyl)-4-methoxybenzaldehyde]
Max Abs [1]: 565 nm
Max Em [1]: 640 nm
Stokes Shift [1]: 75 nm
QY (quantum yield) [1]: 0.48
structures observed in live cells without washing ([2]; 5 min): Prominent lipid droplet like structures

CCN(CC)c1ccc2nc3c4cc(C#Cc5ccc(C=O)c(S(C)(=O)=O)c5)ccc4c(=O)cc-3oc2c1 [NR6, 4-((9-(diethylamino)-5-oxo-5H-benzo[a]phenoxazin-2-yl)ethynyl)-2-(methylsulfonyl)benzaldehyde]
Max Abs [1]: 570 nm
Max Em [1]: 640 nm
Stokes Shift [1]: 70 nm
QY (quantum yield) [1]: 0.45
exposure time in cells stained live, then fixed ([2]; U2OS, 5 min, fixed and washed prior to imaging): less than 10 sec
staining pattern in cells stained live, then fixed [2, 5]: more cytoplasmic structures were stained
adipose to nerve ratio [3]: increased contrast over control autofluorescence with similar adipose to nerve contrast

CCN(CC)c1ccc2nc3c4cc(C#Cc5cccc(C=O)c5)ccc4c(=O)cc-3oc2c1 [NR8, 3-((9-(diethylamino)-5-oxo-5H-benzo[a]phenoxazin-2-yl)ethynyl)benzaldehyde]
Max Abs [1]: 565 nm
Max Em [1]: 640 nm
Stokes Shift [1]: 75 nm
QY (quantum yield) [1]: 0.48
fluorescence intensity in fixed cells ([2]; 5 min): bright
fluorescence intensity in live cells without washing ([2]; 5 min): brightest of the synthesized derivatives

CC/N=c1/cc2oc3cc(NCC)c(C)cc3nc-2cc1C [Oxazine 4, reference compound]
ROC AUC of nerve-to-muscle contrast, change [4]: improved values
